Entries after “also recorded” stand apart in the source; their conditions may differ.
Experiments:
[1] = tested on: right ventricle under load stress (pulmonary banding); experiment: Pulmonary banding load stress model: hemodynamics, heart fibrosis and macrophage infiltration (Example IV); type: in vivo; conditions: banded mice, 25 mg/kg/day in drinking water, 2 weeks
Protocol: (§1) FVB/N mice or mice with a GFP macrophage-specific lineage tracing marker (LysM-Cre) underwent pulmonary banding to directly increase load stress (or sham surgery for controls), and starting the following day received either vehicle or the thromboxane receptor antagonist Ifetroban sodium in their drinking water (25 mg/kg/day). After 2 weeks, noninvasive hemodynamics were obtained by transthoracic echocardiography and invasive hemodynamics were obtained by pressure-volume catheterization of the right heart prior to sacrifice. Hearts were assessed for fibrosis and macrophage infiltration. RNA from right ventricles were isolated and used for unbiased discovery of altered gene expression using Affymetrix Mouse Gene 2.0 arrays performed on four groups (banded or sham). LysM-Cre mouse hearts were flash-frozen whole, cross-sectioned, and assessed by microscopy for fibrosis and macrophage infiltration. Differences between groups were assessed by ANOVA and t-tests. Correlations were assessed by Spearman correlation.

[2] = tested on: right ventricle gene expression; experiment: Right ventricle gene expression, Affymetrix Mouse Gene 2.0 arrays (Example IV); type: in vivo, mice; conditions: banded mice, 25 mg/kg/day, 2 weeks
Protocol: as §1

[3] = tested on: pulmonary artery banding (PAB) mouse model of pulmonary hypertension; experiment: Pulmonary artery banding (PAB) model: cardiovascular phenotyping and histology (Example V); type: in vivo, mice; conditions: 14 days
Protocol: Experimental Methods: In this pulmonary artery banding (PAB) animal model, we used wildtype or Rosa26-rtTA2 mice on a normal diet. Mice were anesthetized and subject to either PAB (20 mice) or sham surgery (10 mice) at 4-6 months of age. Following the procedure, the mice were given either ifetroban water at 30 mg/kg/day or normal drinking water, and after 14 days of treatment we performed cardiovascular phenotyping followed by terminal sacrifice, histology and gene expression arrays.
Echocardiograms to assess cardiac output were obtained the day prior to catheterization and sacrifice. Our standard cardiovascular phenotyping continued with systemic pressure measurement by tail vein cuff, and intrajugular heart catheterization with measurement of right ventricular systolic pressure (RVSP) for peak pressure, diastolic pressure, diastolic time constant, arterial elastance, ejection fraction, and stroke volume.
Following sacrifice, right ventricular hypertrophy was assessed in each animal as a percentage of heart weight. A random fraction of the right hearts were fixed in formalin for histology and examined for indices of fibrosis; other hearts were snap frozen for gene expression analysis via RNA microarray. Right hearts and lungs were collected for analysis of protein expression and gene expression array. Left lungs were fixed and stained. Platelet deposition was examined in small pulmonary artery vessels. The remaining organs were harvested and frozen in liquid nitrogen for potential gene expression analysis.

[4] = tested on: pulmonary artery banding (PAB) model of right ventricular pressure overload; experiment: PAB model of right ventricular pressure overload: hemodynamics, echocardiography, histology (Example VII); type: in vivo; conditions: PAB mice; for RV fibrosis / fibrotic area (Masson's trichrome): ifetroban 25 mg/kg/day in drinking water; for cardiomyocyte diameter / cellular hypertrophy: ifetroban 25 mg/kg/day
Protocol: (§2) Both male and female age-matched C57Bl/6 or FVB/NJ mice, obtained by in-house breeding, were used for pulmonary artery banding. LysM-GFP mice were obtained by cross-breeding LysM-Cre×mTomato/GFP reporter mice B6.129P2-Lyz2tm1(cre)Ifo/J (a gift from Tim Blackwell)×Gt(ROSA)26Sortm4(ACTB-tdTomato, -EGFP)Luo (JAX stock #007676). The day following surgery, mice were given either 25 mg/kg/day IFETROBAN (Cumberland Pharmaceuticals Inc., Nashville, TN) in drinking water or normal drinking water (vehicle) for 2 weeks or 6 weeks prior to hemodynamic evaluation. Mice were weighed and water was changed once a week.
An RVSP of 30 mmHg was used to define PAH, and only samples from mice at or above this threshold were used for analysis of PAB groups. […] Two weeks after PAB, fibrosis in the RV of untreated mice has increased from <5% to […] (blue stain) in histologic sections of frozen RV stained with Masson's trichrome.
In the previous experiments, there was an increase in RV mass but not yet any change in cardiac output or other functional parameters, apart from E/A wave ratio, following PAB. To determine whether the decrease in fibrosis seen with TP receptor antagonism leads to increased preservation of cardiac function, the period following PAB-induced pressure overload was extended to 6 weeks and dosing with ifetroban was continued to 6 weeks, as well. […] This was associated with a decreased ejection fraction and decreased fractional shortening, signs of cardiac failure. All of these were prevented in PAB mice that received ifetroban, despite similar RVSP. Mice underwent sham surgery or PAB and echocardiography and pressure-loop catheterization performed after 6 weeks. End diastolic and systolic volume of the left ventricle were measured using the average of values calculated using both spherical and cylindrical models. Also obtained from echocardiography were the left ventricular stroke volume and ejection fraction, as well as percent fractional shortening.

[5] = tested on: RV monocytes / macrophages; experiment: Cardiac monocytes: LysM-Cre lineage tracing and flow cytometry of RV (Example VII); type: in vivo, mice
Protocol: as §2
TP receptors are also expressed on monocytes, and blockade of these receptors may have immune-specific effects. To determine whether the decrease in fibrosis seen with TP receptor inhibition was due to decreased macrophage infiltration or proliferation in the RV, PAB on LysM-Cre mice expressing eGFP under the LysozymeM promoter was performed, where all cells that have ever had monocyte lineage are labeled with GFP, even if they have later differentiated. […] Transgenic LysM-Cre×flox-mTomato-flox eGFP mice were used to label cells of monocyte derivation in the RV. These mice express a fluorescent red, except in cells derived from monocyte lineage (even if they have later differentiated), which express a fluorescent green. […] Flow sorting of whole RV for circulating markers found a non-significant trend towards an increase in PA-banded mice that was blocked by ifetroban.

[6] = tested on: cultured cardiomyocytes given exogenous TGF-ß; experiment: TGF-ß signalling in cultured cardiomyocytes (PAI-1 expression, promoter luciferase); type: cell-based; conditions: compared to vehicle-treated cells
[7] = tested on: pulmonary artery banding (PAB) model of right ventricular pressure overload; experiment: PAB model of right ventricular pressure overload: hemodynamics, echocardiography, histology (Example VII); type: in vivo; conditions: PAB mice, low dose 3 mg/kg/day via drinking water, 2 weeks
[8] = tested on: α and ß isoforms of the TP receptor; conditions: cited from earlier work

## CCCCCNC(=O)c1coc([C@H]2[C@@H](Cc3ccccc3CCC(=O)O)[C@@H]3CC[C@H]2O3)n1 [ifetroban, [1S-(1α,2α,3α,4α)]-2-[[3-[4-[(Pentylamino)carbonyl]-2-oxazolyl]-7-oxabicyclo[2.2.1]hept-2-yl]methyl]-benzenepropanoic acid]
[1]
  fibrosis (heart): reduction in fibrosis
  hemodynamic markers of right heart function under load stress: preserved right heart function under load stress
  recruitment of inflammatory cells: reduction in recruitment of inflammatory cells
[2]
  anti-fibrotic pathways (THBS4, Asporin, LTBP2), expression arrays: induction of anti-fibrotic pathways including THBS4 and TGF-beta inhibitors Asporin and LTBP2
  pathways related to functional hypertrophy, expression arrays: induction of pathways related to functional hypertrophy
  pro-fibrotic pathways (PDGF-D, FBXO32), expression arrays: reduction of pro-fibrotic pathways such as PDGF-D and FBXO32
[3]; 30 mg/kg/day
  fibrosis in banded right ventricles: decreases fibrosis in banded right ventricles
[3]; PAB mice, 30 mg/kg/day in water
  right ventricular systolic pressure (RVSP): did not have an effect
[3]; banded mice, 30 mg/kg/day, p<0.05 unpaired t test
  ratio of tricuspid E to A wave: significantly increased
[3]; sham surgery and banded, 30 mg/kg/day
  fibrosis in cross-section of the right ventricle (trichrome-stained, 20×): reduced fibrosis in the right ventricle for both the sham surgery and the banded right ventricle
[4]; 25 mg/kg/day, 2 weeks
  RV mass (ratio of right ventricular weight to left ventricle+septum weight): similarly increased in vehicle- and ifetroban-treated PAB groups; also recorded: not blocked
[4]; 25 mg/kg/day, 2 weeks, p<0.05 by ANOVA
  tricuspid E/A wave ratio (echocardiography): increased; also recorded: improved
[4]; 25 mg/kg/day, 2 weeks, listed as Ifetroban
  RV mass (ratio of right ventricular weight to left ventricle+septum weight): allowing increased RV mass
[4]; 25 mg/kg/day, 6 weeks
  signs of cardiac failure (left ventricular dilation, increased stroke volume, decreased ejection fraction and fractional shortening): more functional adaptation and decreased indications of cardiac failure; also recorded: prevented
[4]; 2 weeks
  RV fibrosis / fibrotic area (Masson's trichrome): almost completely abolished
  cardiomyocyte diameter / cellular hypertrophy: blocked
[4]; 2 weeks, listed as Ifetroban
  RV fibrosis / fibrotic area (Masson's trichrome): near normalization of fibrotic area
  cardiomyocyte diameter / cellular hypertrophy: prevented cellular hypertrophy
[4]; 2 weeks, listed as ifetrobn
  RV fibrosis / fibrotic area (Masson's trichrome): antifibrotic effect
[4]; ifetroban, two weeks following PAB
  protection against pressure overload: protected against pressure overload
[5]; LysM-Cre reporter mice, ifetroban
  PAB-induced increase in green (monocyte lineage) cells in RV: not in ifetroban-treated mice
[5]; wildtype mice, PAB
  flow sorting of whole RV for circulating markers: non-significant trend towards an increase in PA-banded mice: blocked
[6]
  PAI-1 expression or promoter activity: no change
[7]
  fibrosis of the right ventricle (histology): does not prevent fibrosis
[8]
  blockade of TPα and TPβ receptor isoforms: effectively blocked

Reference: patent US12161632B2, “Compositions and methods of treating cardiac fibrosis with ifetroban” (Cumberland Pharmaceuticals Inc., priority 2014, dated 2024)
